Experimental data taken from article PMC6102691, “Identification of a novel ligand for the ATAD2 bromodomain with selectivity over BRD4 through a fragment growing approach” (Organic & Biomolecular Chemistry, 2018).

Experiments:
[1] = biological target: BRD4 (Homo sapiens, UniProt O60885); assay: Surface plasmon resonance (SPR) direct binding to BRD4; conditions: for Kd: SPR format assay, Kd above the top concentration projected by extrapolation (extrapolated Rmax from control compound)
Method: Surface plasmon resonance (SPR) was used to assess the direct binding of the fragments and provide Kd values for binding to both ATAD2 and BRD4. SPR can yield artefactual data where the concentration of a small-molecular analyte exceeds ∼250 μM, and accordingly, this was the highest concentration used in the assays. Where the Kd exceeded this limit, projected Kds were determined by extrapolation, using the observed response units for compound binding (RU) relative to the molecular weight of a known control compound.[23]
(§1) 12.5 μM using an Echo 550 (Labcyte). Each well was backfilled to a final volume of 200 nl (for the […]), resulting in final DMSO concentrations of 2 %. 5 μl of GST-ATAD2 was added to each well and incubated for 30mins resulting in a final concentration of 5 nM.
(§2) 5μl of biotinylated-histone H4 peptide (SGRG-K(Ac)-GG-K(Ac)-GLG-K(Ac)-GGA-K(Ac)- RHRKVGG-K(Biotin)) was then added to each well at a final concentration of 500nM. Both GST-ATAD2 and peptide were diluted in buffer B (50 mM Tris pH 7.5, […], 1 mM DTT, 100 μg/ml bovine serum albumin (BSA)). The plate was then incubated at room temperature for 30mins and then 5 μl LanthaScreen® Tb-anti-GST Antibody (Life Technologies) at final concentration of 5 nM was added to each well and incubated for an additional 30mins. 5 μl of streptavidin-XLL65 (Cisbio Assay) at a final concentration of […] was added to each assay well. Both dyes were diluted in buffer C (50 mM Tris pH 7.5, […], 100 μg/ml BSA). The plate was incubated at room temperature for a further 30mins and then read using a PheraStar FS (BMG Labtech). The data were analysed using Graphpad […]
(§3) 1.4 Surface Plasmon Resonance (SPR).
(§4) SPR-based ligand binding assays were performed using Biacore S200 (GE Healthcare) at 25 °C using single cycle affinity.
(§5) ATAD2N1064A was achieved using standard amine coupling on a CM5 chip surface. The surface was prepared through activation with EDC/NHS, followed by injection of 10 µg/ml of respective proteins until target level 8000 RU was reached. The surface was then quenched using 1 M Ethanolamine and washed with running buffer 10 mM HEPES, 150mM NaCl, 0.01% TWEEN20, 0.5 mM TCEP and 1% DMSO with a flow rate of […]. Compounds were injected in a dose-response manner (8 concentration points ranging from 0-200 µM) in series across the control, ATAD2, BRD4, and ATAD2-N1064A flow cells using solvent correction to account for bulk refractive index changes. The reference control channel was subtracted […]
(§6) from immobilised channels and dose-response data was fitted using a steady state constant Rmax 1:1 binding model, using an extrapolated Rmax determined from a binding control compound in those cases where the extrapolated Kd value was greater than the top concentration used in the experiment (200 µM). K d values are reported to the nearest 100th of micromolar. 1 […]
(§7) Crystallisation was performed at 20 °C using the hanging drop vapor diffusion method.
(§8) Crystals of ATAD2 were grown by mixing 2µl ATAD2 at 7mg/ml and 2µl precipitant containing 0.1 M BIS-TRIS pH 6.5 and 2.0 M ammonium sulfate. Crystals were harvested in a diffusion solution containing 10 mM compound, 5% DMSO, 25 mM HEPES pH 7.5, 75 mM NaCl, 50 mM BIS-TRIS pH 6.5 and 1.0 M Ammonium Sulfate for 48hrs. Prior to data collection the crystals were cryo protected with the addition of 25% (v/v) ethylene glycol to the diffusion solution. X-ray diffraction data were recorded at Diamond Light Source (Harwell, Oxfordshire, UK). Data processing was carried out using XDS, POINTLESS/AIMLESS2 and other programs of the CCP4i suite3 run through the CCP4i2 gui. Structures were solved by molecular replacement using PHASER4 and pdb 3DAI as a starting model. REFMAC5 was employed for refinement, and model building was performed using COOT6. PDBs were deposited within the protein database www.pdb.org using accession codes: 11 XXXX, 15a […]

[2] = biological target: T1, GST-ATAD2 bromodomain / biotinylated acetylated histone H4 peptide (Homo sapiens, UniProt Q6PL18); assay: ATAD2-histone displacement HTRF assay; assay type: binding; conditions: for IC50: HTRF format assay, highest concentration 1000 μM; for ATAD2 LE: Ligand efficiency (LE) = 1.4(–log IC50)/N, N = number of non-hydrogen atoms, from HTRF IC50
T1 construct: 981-1108; made in house; host or cells: Escherichia coli BL21 (DE3) pLysS, plasmid pGEX-6P-1
T1 sequence (Q6PL18 981-1108): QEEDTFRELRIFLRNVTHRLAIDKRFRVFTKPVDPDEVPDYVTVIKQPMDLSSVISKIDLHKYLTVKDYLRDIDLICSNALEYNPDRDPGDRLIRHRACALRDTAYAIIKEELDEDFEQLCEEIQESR
Method: (§9) Surface plasmon resonance (SPR) was used to assess the direct binding of the fragments and provide Kd values for binding to both ATAD2 and BRD4. SPR can yield artefactual data where the concentration of a small-molecular analyte exceeds ∼250 μM, and accordingly, this was the highest concentration used in the assays.
1.1 Protein Purification.
The ATAD2 bromodomain 981-1108 was expressed with an N-terminal GST fusion from the pGEX-6P-1 plasmid. The plasmids were transformed into BL21 (DE3) pLysS Escherichia coli (Novagen) and then the cells grown in luria bertani (LB) media at 37 °C until an OD600 of 0.6 was reached. The temperature was reduced to 20 °C and expression induced using 0.2 mM Isopropyl β-D-1-thiogalactopyranoside (IPTG). The cells were harvested after overnight incubation and resuspended in buffer A (20 mM HEPES pH 7.4, 100 mM NaCl, 5 mM Dithiothreitol (DTT)). The cells were lysed by sonication and the lysate cleared by centrifugation (50,000 x g, 4 °C, 1 hr). The protein was passed over 5ml of glutathione Sepharose 4B resin (GE Healthcare) at 4 °C. The resin was then washed with buffer A and the protein eluted with buffer A supplemented with 10 mM glutathione. The protein was then applied to a Superdex 200 26/60 gel filtration column (GE Healthcare) equilibrated in buffer […]
1.2 Isothermal Titration Calorimetry.
ATAD2 was exchanged into ITC buffer (50 mM HEPES pH7.4, 200 mM NaCl, 1 mM DTT).
ITC measurements were carried out at 25°C on a Microcal ITC 200 (Malvern Instruments Ltd, Malvern, UK). Compound 11 at 40mM, 2% DMSO was titrated into ATAD2 prepared in the cell at 150 μM, 2% DMSO. Titrations began with an initial 0.5 μL injection followed by 19x 2 μL injections of compound, with 120s spacing between each injection, and stirred at 1000 rpm throughout the experiment. Data were then analysed using Origin 7.0 (OriginLab Corp., Burlington, NC, USA) and fit with the one-set-of-sites model.
1.3 ATAD2-Histone displacement HTRF assay.
Compounds (dissolved to 100 mM in DMSO) were dispensed into black 384 well assay plates […]
as §1, §2, §3, §4
ATAD2N1064A was achieved using standard amine coupling on a CM5 chip surface. The surface was prepared through activation with EDC/NHS, followed by injection of 10 µg/ml of respective proteins until target level 8000 RU was reached. The surface was then quenched using 1 M Ethanolamine and washed with running buffer 10 mM HEPES, 150mM NaCl, 0.01% TWEEN20, 0.5 mM TCEP and 1% DMSO with a flow rate of […]. Compounds were injected in a dose-response manner (8 concentration points ranging from 0-200 µM) in series across the control, ATAD2, BRD4, and ATAD2-N1064A flow cells using solvent correction to account for bulk refractive index changes. The reference control channel was subtracted

[3] = biological target: T2, ATAD2 bromodomain (Homo sapiens, UniProt Q6PL18); assay: Surface plasmon resonance (SPR) direct binding to ATAD2; conditions: SPR format assay; Kd above the top concentration projected by extrapolation (extrapolated Rmax from control compound)
T2 construct: 981-1108; GST (N); made in house; host or cells: Escherichia coli BL21 (DE3) pLysS, plasmid pGEX-6P-1
T2 sequence (Q6PL18 981-1108): T1 sequence (Q6PL18 981-1108)
Method: as §9, §1, §2, §3, §4, §5, §6, §7, §8

Row | Compound | Kd [1] | selectivity between ATAD2 and BRD4, in words ([1]; SPR, BRD4 versus ATAD2) | IC50 [2] | ATAD2 inhibition in HTRF, in words ([2]; HTRF, highest concentration assayed 1000 μM) | ATAD2 LE [2] | Kd [3]
1 | CN1C(=O)C(C)(C)c2cc(=O)n(CCc3ccccc3)cc21 [Compound 17d] | 161 µM | bound more tightly to BRD4 than to ATAD2 | 741 ± 74 µM | sub-millimolar ATAD2 IC50 values | 0.20 | > 200 µM
2 | COC(=O)c1ccc(Cn2cc3c(cc2=O)C(C)(C)C(=O)N3C)cc1 [Compound 17e] | 141 µM | – | 651 ± 1 µM | – | 0.18 | > 200 µM
3 | CN1C(=O)C(C)(C)c2cc(=O)n(Cc3ccc(C(=O)O)cc3)cc21 [Compound 17f] | > 200 µM | – | 533 ± 40 µM | – | 0.19 | > 200 µM
4 | CN1C(=O)C(C)(C)c2cc(=O)n(Cc3ccc(C#N)cc3)cc21 [Compound 17g] | 142 µM | – | 562 ± 67 µM | – | 0.20 | > 200 µM
5 | CN1C(=O)C(C)(C)c2cc(=O)n(Cc3ccc(C(N)=O)cc3)cc21 [Compound 17h] | > 200 µM | – | 680 ± 66 µM | – | 0.18 | > 200 µM
6 | CN1C(=O)C(C)(C)c2cc(=O)n(Cc3ccc(S(C)(=O)=O)cc3)cc21 [Compound 17i] | 200 µM | – | 359 ± 37 µM | – | 0.19 | > 200 µM
7 | CN1C(=O)C(C)(C)c2cc(=O)n(Cc3ccc(Cl)cc3)cc21 [Compound 17j] | 40 µM | – | 190 ± 63 µM | – | 0.24 | 200 µM
8 | CN1C(=O)C(C)(C)c2cc(=O)n(Cc3ccc(Br)cc3)cc21 [Compound 17k] | 48 µM | – | 236 ± 36 µM | – | 0.23 | 138 µM
9 | CN1C(=O)C(C)(C)c2cc(=O)n(Cc3ccc(C(F)(F)F)cc3)cc21 [Compound 17m] | 124 µM | – | 179 ± 43 µM | – | 0.21 | > 200 µM
10 | CN1C(=O)C(C)(C)c2cc(=O)n(Cc3ccc(Cl)c(Cl)c3)cc21 [Compound 17n] | 65 µM | – | 299 ± 28 µM | – | 0.21 | 159 µM
11 | CN1C(=O)C(C)(C)c2cc(=O)n(Cc3ccccc3C#N)cc21 [Compound 17o] | > 200 µM | – | > 1000 µM | – | – | > 2000 µM
